In article PMC7023466, “Novel N,N′-Disubstituted Acylselenoureas as Potential Antioxidant and Cytotoxic Agents” (Antioxidants, 2020):

Assays:
MCF-7 cells = experiment: MTT cell viability assay, MCF-7; format: cell-based, human; conditions: Homo sapiens, MCF7, 48 h, read-out: Growth (%) MCF-7
Description: (§1) The cell viability assay of each compound was carried out using the MTT assay. Each compound was dissolved in dimethyl sulfoxide (DMSO) at a concentration of 0.01 M. Serial dilutions were prepared with a non-supplemented culture medium. The effect of each compound on the cell viability was determined at two different concentrations (10 and 50 µM) in MCF-7, HTB-54, and HT-29 cells. In addition, the selected compounds were tested at six different concentrations between 0.1–100 µM in MCF-7, T47D, H1299, HTB-54, and 184B5 cells.
(§2) Briefly, 1 × 10^4 tumor cells/well or 2 × 10^4 non-tumorigenic cells/well were grown in 96-well plates for 12 h. Then, these cells were incubated with either DMSO (control) or a different concentration of each of the tested compounds for 48 h. Three hours before the termination point, 20 µL of MTT were added to measure the cellular viability. The resultant formazan crystals were dissolved in 50 µL of DMSO, and the absorbance was measured at 570 and 630 nm. The results are expressed as IC50, the half maximal inhibitory concentration. This value was calculated using OriginPro 8.5.1. software (OriginLab, Northampton, MA, USA) by nonlinear curve fitting. Furthermore, the selectivity index (SI) was calculated as the ratio of the IC50 values determined for the non-malignant and the tumor cells (IC50 (184B5)/IC50 (MCF-7). The data were obtained from at least three independent experiments performed in quadruplicates.

HT-29 cells = experiment: MTT cell viability assay, HT-29; format: cell-based; conditions: Homo sapiens, 48 h, read-out: Growth (%) HT-29
Description: as §1, §2

HTB-54 cells = experiment: MTT cell viability assay, HTB-54; format: cell-based; conditions: Homo sapiens, HTB-54, 48 h, read-out: Growth (%) HTB-54
Description: as §1, §2

Compound	activity at 10 µM (MCF-7 cells) [%]	activity at 50 µM (MCF-7 cells) [%]	activity at 10 µM (HT-29 cells) [%]	activity at 50 µM (HT-29 cells) [%]	activity at 10 µM (HTB-54 cells) [%]	activity at 50 µM (HTB-54 cells) [%]
O=C(NC(=[Se])Nc1ccc(Cl)cc1)c1cccnc1Cl [Compound 4e]	90.6	60.2	93.4	67	92.1	63.5
COc1ccc(NC(=[Se])NC(=O)c2cc(SC)ccc2Cl)cc1 [Compound 3c]	73.9	23.7	67.9	44.4	79	27.6
Cc1ccc(NC(=[Se])NC(=O)c2ccccc2Cl)cc1 [Compound 2b]	60.1	24.7	80.2	46.1	87.9	66.6
CSc1ccc(Cl)c(C(=O)NC(=[Se])Nc2ccc(Cl)cc2)c1 [Compound 3e]	105	32.4	76.6	73	79.4	35.8
Cc1ccc(NC(=[Se])NC(=O)c2ccccc2)cc1 [Compound 1b]	64.2	12.6	60.4	28	75.8	61.1
O=C(NC(=[Se])Nc1ccc(C(F)(F)F)cc1)c1cccnc1Cl [Compound 4d]	67.1	48.9	103	62.2	90.5	62.2
O=C(NC(=[Se])Nc1ccc(C(F)(F)F)cc1)c1ccccc1 [Compound 1d]	73.6	21.9	97.3	25.1	84.9	38.7
O=C(NC(=[Se])Nc1ccccc1)c1cccnc1Cl [Compound 4a]	68.8	29.3	99.1	34.1	83.1	67.6
O=C(NC(=[Se])Nc1ccc(Cl)cc1)c1cccs1 [Compound 5e]	77.6	20.8	78.1	37.8	73.2	58.1
O=C(/C=C/c1ccccc1)NC(=[Se])Nc1ccccc1 [Compound 8a]	75.8	15.3	98.6	34.2	65.2	49.7
O=C(NC(=[Se])Nc1ccc(Cl)cc1)c1ccco1 [Compound 6e]	62.7	11.2	75.2	31.1	84.1	4
O=C(NC(=[Se])Nc1ccccc1)c1cc2ccccc2s1 [Compound 9a]	64.9	43.4	62	28.6	66.9	3.3
O=C(NC(=[Se])Nc1ccc(Cl)cc1)C12CC3CC(CC(C3)C1)C2 [Compound 7e]	83.9	39	53.5	45.9	111	36.4
O=C(NC(=[Se])Nc1ccc(C(F)(F)F)cc1)c1ccco1 [Compound 6d]	71.7	11.9	81.5	18.7	59.4	4.6
Cc1ccc(NC(=[Se])NC(=O)c2cc3ccccc3s2)cc1 [Compound 9b]	76.8	62.8	64.3	36.2	79	19
O=C(C=Cc1ccccc1)NC(=[Se])Nc1ccc(Cl)cc1 [Compound 8e]	69.6	11.8	85.2	40.6	76.1	31.2

Compound	activity at 10 µM (MCF-7 cells) [%]	activity at 50 µM (MCF-7 cells) [%]	activity at 10 µM (HT-29 cells) [%]	activity at 50 µM (HT-29 cells) [%]	activity at 10 µM (HTB-54 cells) [%]	activity at 50 µM (HTB-54 cells) [%]
O=C(NC(=[Se])Nc1ccccc1)c1ccccc1 [Compound 1a]	70.5	6.6	56.9	23.4	67.8	57.1
COc1ccc(NC(=[Se])NC(=O)c2cccs2)cc1 [Compound 5c]	90.7	11.8	57.5	34.6	85	60.2
O=C(NC(=[Se])Nc1ccc(Cl)cc1)c1ccccc1Cl [Compound 2e]	118	16	77.8	57.9	96.7	18.6
O=C(C=Cc1ccccc1)NC(=[Se])Nc1ccc(C(F)(F)F)cc1 [Compound 8d]	91.1	18.5	76	37.3	90	41.1
COc1ccc(NC(=[Se])NC(=O)c2cccnc2Cl)cc1 [Compound 4c]	86.6	33	99.1	51.6	88.9	68.5
COc1ccc(NC(=[Se])NC(=O)c2ccccc2Cl)cc1 [Compound 2c]	62.6	26.4	76.3	44.8	84.9	66.7
Cc1ccc(NC(=[Se])NC(=O)c2ccco2)cc1 [Compound 6b]	64.9	5.8	87.6	48.4	73	1.6
Cc1ccc(NC(=[Se])NC(=O)c2cccnc2Cl)cc1 [Compound 4b]	77.6	32.4	99.2	51.7	87	64.8
O=C(NC(=[Se])Nc1ccc(C(F)(F)F)cc1)C12CC3CC(CC(C3)C1)C2 [Compound 7d]	87.9	25.3	49.5	29.6	92.9	79.8
Cc1ccc(NC(=[Se])NC(=O)c2cccs2)cc1 [Compound 5b]	64.2	17.5	82.8	36.8	66.8	66.7
COc1ccc(NC(=[Se])NC(=O)C23CC4CC(CC(C4)C2)C3)cc1 [Compound 7c]	91.8	24.3	59.6	34	98.4	48.3
O=C(NC(=[Se])Nc1ccc(C(F)(F)F)cc1)c1ccccc1Cl [Compound 2d]	94.2	10.4	87.1	51.7	100	37.6
COc1ccc(NC(=[Se])NC(=O)c2ccco2)cc1 [Compound 6c]	70	13.1	74.5	35.9	74.2	3.8
O=C(NC(=[Se])Nc1ccccc1)c1cccs1 [Compound 5a]	70.3	27.4	73.5	39	76.8	43.7
CSc1ccc(Cl)c(C(=O)NC(=[Se])Nc2ccccc2)c1 [Compound 3a]	84.1	23.1	71.1	42.7	88.8	49.9
